Row | Structure (SMILES) | melting point [°C]
1 | CCC(=O)NCC1CCN(C(=O)Nc2ccc(OC(F)(F)F)cc2)C1 (stereo not drawn) [Example 12, 3-(propanamidomethyl)-N-[4-(trifluoromethoxy)phenyl]pyrrolidine-1-carboxamide] | 166 to 167
2 | CCC(=O)N1CCC(NC(=O)Nc2ccc(OC(F)(F)F)cc2)C(F)(F)C1 (stereo not drawn) [Example 44, 1-(3,3-difluoro-1-propionylpiperidin-4-yl)-3-(4-(trifluoromethoxy)phenyl)urea] | 223 to 224
3 | CCC(=O)N1CC[C@@H](NC(=O)Nc2ccc(OC(F)(F)F)cc2)[C@@H](F)C1 [Example 45, 1-((3S,4R)-3-fluoro-1-propionylpiperidin-4-yl)-3-(4-(trifluoromethoxy)phenyl)urea] | 231 to 232
4 | CCC(=O)N1CC[C@H](NC(=O)Nc2ccc(OC(F)(F)F)cc2)[C@H](F)C1 [Example 46, 1-((3R,4S)-3-fluoro-1-propionylpiperidin-4-yl)-3-(4-(trifluoromethoxy)phenyl)urea] | 245 to 246
5 | CCC(=O)N1CC[C@H](NC(=O)Nc2ccc(OC(F)(F)F)cc2)[C@@H](F)C1 [Example 47, 1-((3S,4S)-3-fluoro-1-propionylpiperidin-4-yl)-3-(4-(trifluoromethoxy)phenyl)urea] | 180 to 181
6 | CCC(=O)N1CC[C@H](NC(=O)Nc2ccc(OC(F)(F)F)cc2)C[C@H]1C [Example 48, 1-((2R,4S)-2-methyl-1-propionylpiperidin-4-yl)-3-(4-(trifluoromethoxy)phenyl)urea] | 175 to 176

Reference: patent US20240293362A1, “Soluble Epoxide Hydrolase Inhibitors and Use Thereof” (Board of Trustees of Michigan State University, priority 2021, published 2024)
